The results in this text go back to ChEMBL document CHEMBL6127016, “Design and synthesis of dual functional NBD-fluorophore-incorporated naphthalene diimide derivatives as G-quadruplex ligands” (Bioorg Med Chem Lett, 2024).

pIC50, pKd: −log10 of the molar value. Calls of active or inactive are those of the source. No cut-off for these calls is given here.

Assay [1] deals with Quadruplex DNA. Kind of assay: Binding affinity to human telomeric G-quadruplex HT21 DNA assessed as increase in fluorescence intensity at 5 uM by fluorescence emission spectra analysis. Format: nucleic-acid assay.
Assay [2] concerns Quadruplex DNA. Kind of assay: Binding affinity to human telomeric G-quadruplex HT21 DNA assessed as increase in CD signal at 15 uM at 235 nm wavelength by circular dichroism spectroscopic analysis. Format: nucleic-acid assay. Background: Circular dichroism is widely used to follow secondary structure.
Another assay relates to MIA PaCa-2. Kind of assay: Cytotoxicity against human MIA PaCa-2 cells assessed as inhibition of cell growth by CellTiter-Glo assay. Format: functional, cell-based. On the technique in general: ATP-based viability assays read luminescence as a measure of living cells.
For assay [3], the system named is Quadruplex DNA. Kind of assay: Binding affinity to human telomeric G-quadruplex HT21 DNA assessed as increase in CD signal at 15 uM at 290 nm wavelength by circular dichroism spectroscopic analysis. Format: nucleic-acid assay.
Assay [4] has as its system Quadruplex DNA. Kind of assay: Binding affinity to human telomeric G-quadruplex HT21 DNA assessed as increase in CD signal at 15 uM at 250 nm wavelength by circular dichroism spectroscopic analysis. Format: nucleic-acid assay.
The target of assay [5] is Quadruplex DNA. In words: Binding affinity to human telomeric G-quadruplex HT21 DNA assessed as dissociation constant by fluorescence titration spectra analysis. Format: nucleic-acid assay.

By pIC50 is commonly meant −log10 of the IC50, conventionally taken in molar units. One may read the pKd as −log10 of the Kd, conventionally taken in molar units. Regarding `O=C1c2ccc3c4c(c(NCCN5CCN(c6ccc([N+](=O)[O-])c7nonc67)CC5)cc(c24)C(=O)N1CCCN1CCOCC1)C(=O)N(CCCN1CCOCC1)C3=O`, the outcome with Quadruplex DNA [1] and with Quadruplex DNA [3] was Active. Further, the result with Quadruplex DNA [2] and in the assay with Quadruplex DNA [4] was inactive. Further, in the assay on MIA PaCa-2, the pIC50 is 7.11. On Quadruplex DNA [5], the negative-log Kd (pKd) is 5.76.

For `O=C1c2ccc3c4c(c(NCCN5CCCC5)cc(c24)C(=O)N1CCCN1CCOCC1)C(=O)N(CCCN1CCOCC1)C3=O`, in the assay with MIA PaCa-2, the negative logarithm of the IC50 (pIC50) is 8.02.

Turning to `O=C(CNc1cc2c3c(ccc4c3c1C(=O)N(CCCN1CCOCC1)C4=O)C(=O)N(CCCN1CCOCC1)C2=O)NCC1CCN(c2ccc([N+](=O)[O-])c3nonc23)CC1`, the result in the assay on Quadruplex DNA [1] was Active. The negative logarithm of the IC50 (pIC50) with MIA PaCa-2 is 6.44. For the same compound, at Quadruplex DNA [5], the pKd is 6.22.

As for `O=C1c2ccc3c4c(c(NCC5CCN(c6ccc([N+](=O)[O-])c7nonc67)CC5)cc(c24)C(=O)N1CCCN1CCOCC1)C(=O)N(CCCN1CCOCC1)C3=O`, the result in the assay with Quadruplex DNA [1] was inactive. The pIC50 in the assay with MIA PaCa-2 is 6.44.
